Measured values reported in US20090264291A1, “COMPOSITIONS COMPRISING ANTI-PROLIFERATIVE AGENTS AND USE THEREOF” (priority 1998, published 2009).
Where “and” joins values, the source holds several entries; their conditions need not be identical. Equal values may be shown once.

Tested on: cells
Test: Cytotoxicity by agarose diffusion test
Format: cell-based
Experimental: Cytotoxicity was assessed by an agarose diffusion test, in which the test material is applied to the surface of agarose gel, wherein the agarose gel is in contact with cells. Cytotoxic test material causes cell lysis. Live cells incorporate MTT and transform it to formazan as described herein above; cytotoxicity potential is given according to the mean area of non-stained cells, i.e., lysed cells, by the following scale:
Two independent tests were performed in duplicate (total of 4 Petri dishes). Cultured cell were trypsinized and counted. 2×10^6 cells in 4 ml of DMEM medium were seeded in each 50 mm diameter Petri dish. The dishes were incubated for 24 h+1 h at 37° C., 5% CO2, before they were covered with 4% agarose gel, prepared with complete DMEM medium. The test compound (tomato derived extract) was applied on top of a 6 mm disc of filter paper that was placed in the center of the agarose gel surface.
After 23 h-25 h of contact at 37° C. and 5% CO2 the filter paper with the test compound and the agarose gel were gently removed. The cells were rinsed carefully with PBS by a pipette. The liquid was then removed, and 2 ml solution of MTT at 0.5 mg/ml, prepared extemporaneously from a source solution of 5 mg/ml, was added to each dish. The dishes were then incubated for 0.5-1.5 h at 37° C. and 5% CO2. After removal of the excess dye, living cells were colored while lysed cells appeared as an uncolored zone. Each dish was placed on a light surface and the largest and the smallest diameters of the lysis area, estimated visually, were measured by a measuring ruler (mm) on a graph paper, and the mean diameter was calculated.
The value of the diameter of cell lysis taken into account for the determination of cytotoxicity corresponded to the arithmetical mean of the mean diameter defined for the 2 dishes of each test (MD). Pure complete DMEM served as a negative control (no lysis should occur). 3% SDS served as a positive control (cells are lysed due to the presence of SDS).

[1] = dishes 1-4, 23 h-25 h of contact

SMILES: CCCCCCCCCCCCOS(=O)(=O)[O-].[Na+] [3% SDS, SDS]
- MD (mean of the mean diameter for the 2 dishes of each test) (dishes 1 + 2 and 3 + 4): 2.6 cm
- Mean (diameter of lysis) (dishes 1-4): 2.6 cm and 2.5 cm
- Largest diameter (of the lysis area) [1]: 2.5 cm and 2.6 cm
- Smallest diameter (of the lysis area) [1]: 2.4 cm and 2.5 cm
